According to patent US9155329B2, “Flavour compositions” (Givaudan Nederland Services B.V., priority 2005, dated 2015):
Read-outs that look alike come from different tables or passages of the source.

Key:
[1] = sample B: ice cream (8% vegetable fat) + strawberry flavour + 7 ppm substance, versus A without substance
Description: […] ice cream (8% vegetable fat) samples were prepared: • A: Ice cream (see table 2)+strawberry flavour • B: Ice cream (see table 2)+strawberry flavour+7 ppm N-gluconyl 1-amino-2-methyl-2-propanol (as prepared in Example 5)
The ice creams were tasted by a professional panel.

[2] = Description: Four yoghurt samples were prepared: • A: Yoghurt 0% fat+strawberry flavour+sucralose (25%) 300 ppm • B: Yoghurt 0% fat+strawberry flavour+sucralose (25%) 300 ppm+10 ppm N-gluconyl 2-amino-2-methyl-propanol (as prepared in Example 8) • C: Yoghurt 0% fat+strawberry flavour+4% sugar • D: Yoghurt 0% fat+strawberry flavour+4% sugar+10 ppm N-gluconyl 2-amino-2-methyl-propanol (as prepared in Example 8)
The yoghurts were tasted by a professional panel.

[3] = standard chicken soup dosed to 5 ppm substance, versus reference soup
Description: A standard chicken soup was prepared. The quantity was split in two. One part was kept as reference and the other part was dosed to contain 5 ppm of N-gluconyl 2-amino-2-methyl-propanol (as prepared in Example 8). The soups were tasted by a professional panel.

[4] = Aqueous NaCl solution tasting by a sensory panel; details: solution B: 0.5% NaCl and 12 ppm substance; solution A (0.5% NaCl alone) described as salty
Description: Two aqueous solutions were prepared: • A. 0.5% NaCl • B. 0.5% NaCl and 12 ppm of N-lactoyl 2-amino-2-methyl-propanol (as prepared in Example 4)

[5] = Carbonated orange flavoured soft drink evaluation; details: compared to original drink
Description: Two different soft drinks A and B were prepared by adding respectively 40 ppb and 4 ppm of N-lactoyl 2-amino-2-methyl-propanol (as prepared in Example 4) to a commercially available carbonated orange flavoured soft drink.

Which taste description [1] does the source give for CC(C)(O)CNC(=O)[C@H](O)[C@@H](O)[C@H](O)[C@H](O)CO [N-gluconyl 1-amino-2-methyl-2-propanol] here?
Its taste description is “more round and natural taste, very clear sweet enhancement and increased creaminess”.

With CC(C)(CO)NC(=O)[C@H](O)[C@@H](O)[C@H](O)[C@H](O)CO [N-gluconyl 2-amino-2-methyl-propanol, N-gluconyl 2-amino-2-methylpropanol] as the compound, how does the taste description ([2]; sample B: yoghurt 0% fat + strawberry flavour + sucralose (25%) 300 ppm + 10 ppm substance, compared to A without substance) read?
The taste description was “fuller more round and natural taste, more sugar sweetness, significantly less bitter metallic aftertaste compared to A”.

And the taste description ([2]; sample D: yoghurt 0% fat + strawberry flavour + 4% sugar + 10 ppm substance, compared to C without substance)?
Its taste description is “fuller more round and natural taste, more intense sweet compared to C”.

And the taste description [3]?
Its taste description is “more tasteful, more complete, more body, more fatty”.

Which results are given for CC(O)C(=O)NC(C)(C)CO (stereo not shown) [N-lactoyl 2-amino-2-methyl-propanol, N-lactoyl 2-amino-2-methylpropanol]?
taste description [4]: “high impact”, “bouillon”, “meaty”, “salty”, “umami” and “salivating”; taste description ([5]; sample A: 40 ppb substance in commercial carbonated orange flavoured soft drink): more natural, with a more juicy character than the original; taste description ([5]; sample B: 4 ppm substance in commercial carbonated orange flavoured soft drink): tingling character typical of the flavour modulating substances of the present invention, which was judged as very pleasant and particularly well suited for the orange flavour
